Results taken from PMC10056348, “Photocaged Histone Deacetylase Inhibitors as Prodrugs in Targeted Cancer Therapy” (Pharmaceuticals, 2023).

Key:
[1] = system: HepG2 cancer cell line; parameters: method as in PMID 30664827; conditions: cited from earlier work
[2] = Photo-uncaging efficiency (HPLC after irradiation at 365 nm); format: physicochemical; conditions: 10 min
Method: Photolysis (photo-uncaging) of photocaged HDACi prodrugs was performed at room temperature using a UVP CL-1000 Crosslinker (Analytik Jena GmbH, Jena, Germany) equipped with five UV-A tubes (F8T5/BL368; λmax = 365 nm; Analytik Jena GmbH, Jena, Germany). Hereafter, this entire experimental set-up will be referred to as the “UV reactor”.
For the photo-uncaging efficiency testing, 10 µL of a 1.0 mM DMSO solution of the respective compound was irradiated for 10 min using the UV reactor described above. Subsequently, 90 µL acetonitrile was added, and the samples were analyzed via HPLC. The amount of photo-cleaved HDACi was determined by comparison with a five-point calibration curve of the respective parent inhibitor, using HPLC/UV detection at an appropriate wavelength (area under the curve; area mAu*min).
2. Photouncaging Experiments
Photolysis (photouncaging) of photocaged HDACi prodrugs was performed at room temperature using an UVP CL-1000 Crosslinker (Analytik Jena GmbH, Jena, Germany) equipped with five UV-A tubes (F8T5/BL368; λmax = 365 nm; Analytik Jena GmbH, Jena, Germany). Hereafter, this entire experimental set-up will be referred to as the "UV-reactor".
For the deprotection experiments 10 µL of a 1.0 mM DMSO-solution of the respective compound were irradiated for 10 min using the UV-reactor described above. Subsequently, 90 µL acetonitrile were added and the samples were analyzed via HPLC. The amount of photo-cleaved HDACi was determined by comparison with a five-point calibration curve of the respective parent inhibitor using HPLC/UV detection at an appropriate wavelength (area under the curve; area mAu*min).
Figure S5. Calibration curve of DDK-137 (I).

yield of photo-released parent inhibitor ([2]; DMSO, HPLC with calibration curve) [%] | concentration of photo-released parent inhibitor after irradiation ([2]; initial concentration 100 µM) [µM] | Structure (SMILES) | antiproliferative activity against HepG2 [1]
 |  | CN(C)c1ccc(C(=O)N(CC(=O)NCc2ccccc2)Cc2ccc(C(=O)NO)cc2)cc1 [I, N-[2-(benzylamino)-2-oxoethyl]-4-(dimethylamino)-N-[4-(hydroxycarbamoyl)-benzyl]-benzamide] | submicromolar antiproliferative activity
82 | 81.5 | COc1cc(CONC(=O)c2ccc(CN(CC(=O)NCc3ccccc3)C(=O)c3ccc(N(C)C)cc3)cc2)c([N+](=O)[O-])cc1OC [pc-I, N-[2-(Benzylamino)-2-oxoethyl]-N-(4-{[(4,5-dimethoxy-2-nitrobenzyl)oxy]carbamoyl}benzyl)-4-(dimethylamino)benzamide] | 
